Like-named read-outs stand apart in the source and are kept apart here. Starred links: 1 amine or outer side, 2 acyl side, 3 side chain; linkers in the order of their positions; H or OH if unused. Non-standard residues stand in square brackets, D forms with d. Residues, ends and D or L forms follow the SMILES beside them. Groups on a side chain read outwards from the residue. *: point of attachment. C18 diacid = O=C(O)CCCCCCCCCCCCCCCCC(=O)*; γGlu = O=C(O)[C@H](CCC(=O)[*:2])N[*:1]; AEEA = NCCOCCOCC(=O)O; Aib = CC(C)(N)C(=O)O

One experiment concerns the target T1, CRF1R receptor (Homo sapiens, UniProt P34998).
T1 construct: host or cells: CHO-K1 clone 2
T1 sequence (P34998 24-415): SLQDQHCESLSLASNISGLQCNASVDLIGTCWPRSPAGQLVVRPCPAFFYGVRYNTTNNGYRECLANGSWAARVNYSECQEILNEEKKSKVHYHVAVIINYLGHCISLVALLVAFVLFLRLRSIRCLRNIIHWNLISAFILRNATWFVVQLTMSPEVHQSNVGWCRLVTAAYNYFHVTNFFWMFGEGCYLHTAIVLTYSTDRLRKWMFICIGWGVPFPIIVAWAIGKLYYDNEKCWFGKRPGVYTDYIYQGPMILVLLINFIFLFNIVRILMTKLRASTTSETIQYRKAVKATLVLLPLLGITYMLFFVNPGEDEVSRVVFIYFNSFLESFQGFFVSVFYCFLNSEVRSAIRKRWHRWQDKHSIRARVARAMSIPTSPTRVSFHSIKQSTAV
Put plainly: cAMP activity at anti-target CRF1R, CHO-K1 cell line clone 2 (Example 19.10). It counts as cell-based. As to conditions: CRF1R CHO-K1 clone 2; for EC50: 0% HSA, read-out: EC50 [nM] 0% HSA; for Emax: 100% = Sauvagine at 100 nM. In short, it runs like this:
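A CRF1R-overexpressing CHO-K1 line (clone 2) was grown in F12/10% FBS/G418 and frozen in aliquots before use. The cAMP assay followed the preceding procedure, with 100% activation defined by Sauvagine at 100 nM.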

Another experiment deals with T2, human CRF2α receptor (Homo sapiens, UniProt Q13324).
T2 construct: expressed in transfected cells; host or cells: TeloHEAC
T2 sequence (Q13324 1-411): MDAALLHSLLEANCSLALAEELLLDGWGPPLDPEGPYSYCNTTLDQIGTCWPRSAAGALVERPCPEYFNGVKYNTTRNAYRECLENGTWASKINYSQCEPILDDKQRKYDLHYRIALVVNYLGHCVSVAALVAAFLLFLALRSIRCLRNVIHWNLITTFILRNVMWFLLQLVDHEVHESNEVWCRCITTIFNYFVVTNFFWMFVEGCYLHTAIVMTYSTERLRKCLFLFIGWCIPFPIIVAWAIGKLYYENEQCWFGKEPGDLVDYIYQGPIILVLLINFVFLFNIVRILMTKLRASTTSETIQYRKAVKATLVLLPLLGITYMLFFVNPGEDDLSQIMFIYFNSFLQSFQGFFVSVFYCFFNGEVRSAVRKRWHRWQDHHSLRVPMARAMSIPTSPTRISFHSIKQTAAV
Put plainly: cAMP agonism at human CRF2 α receptor in TeloHEAC cells (Example 7). Format: cell-based. The settings on record: cAMP HTRF, TeloHEAC cells stably expressing human CRF2 α. The essentials: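 Percent activation was referenced to 1000 nM UCN2 (100%), and EC50 values taken as concentrations giving half of maximal response. The read-out was a homogeneous time-resolved fluorescence cAMP kit, fluorescence ratio 665/620 nm. Thawed cells (2000/well) saw compound for 30 min at RT in buffer with 2 mM IBMX and 0%/0.1% HSA.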
For orientation: Time-resolved FRET reads energy transfer from a long-lived donor to a nearby acceptor.

The mark [1] stands for this setting: 0% HSA, read-out: EC50 [nM], 0% HSA.
Setting [2] is: 0.1% HSA, read-out: EC50 [nM], 0.1% HSA.

In general, EC50 refers to the concentration at which the effect is half-maximal. Broadly, the Emax is the greatest response seen or fitted, relative to the assay's reference. For the compound `CC[C@H](C)[C@H](N)C(=O)N[C@H](C(=O)N[C@@H](CC(C)C)C(=O)N[C@@H](CO)C(=O)N[C@@H](CC(C)C)C(=O)N[C@@H](CC(=O)O)C(=O)N[C@H](C(=O)N1CCC[C@H]1C(=O)N[C@H](C(=O)NCC(=O)N[C@@H](CC(C)C)C(=O)N[C@@H](CCCCNC(=O)COCCOCCNC(=O)COCCOCCNC(=O)CC[C@H](NC(=O)CCCCCCCCCCCCCCCCC(=O)O)C(=O)O)C(=O)N[C@@H](CCC(N)=O)C(=O)N[C@H](C(=O)N[C@@H](CC(C)C)C(=O)N[C@@H](CC(C)C)C(=O)N[C@@H](CCCCN)C(=O)N[C@@H](CCC(N)=O)C(=O)N[C@@H](CCC(=O)O)C(=O)N[C@@H](CCCNC(=N)N)C(=O)N[C@@H](CCC(N)=O)C(=O)N[C@@H](CCCCN)C(=O)N[C@@H](CCCCN)C(=O)NC(C)(C)C(=O)N[C@@H](CCCNC(=N)N)C(=O)N[C@@H](CCC(=O)O)C(=O)N[C@@H](CCC(N)=O)C(=O)N[C@@H](C)C(=O)N[C@@H](CCC(=O)O)C(=O)N[C@H](C(=O)N[C@@H](CC(N)=O)C(=O)N[C@@H](CCCCN)C(=O)N[C@@H](CCCNC(=N)N)C(=O)N[C@H](C(=O)N[C@@H](CC(C)C)C(=O)N[C@@H](CCC(=O)O)C(=O)N[C@@H](CCCNC(=N)N)C(=O)N[C@H](C(N)=O)C(C)C)[C@@H](C)CC)[C@@H](C)O)[C@@H](C)CC)[C@@H](C)CC)C(C)C)C(C)C` [compound 148] (H-IVLSLDVPIGLK([AEEA-AEEA-γGlu-C18 diacid])QILLKQERQKK[Aib]REQAETNKRILERV-NH2; N-terminus assumed), the EC50 on CRF1R receptor is more than 100 nM; on human CRF2α receptor (setting [1]) it was 0.29 nM; at human CRF2α receptor (setting [2]), 14.3 nM. Moreover, the maximum response (Emax) on CRF1R receptor was 2.6%.
Take `CC[C@H](C)[C@H](N)C(=O)N[C@H](C(=O)N[C@@H](CC(C)C)C(=O)N[C@@H](CO)C(=O)N[C@@H](CC(C)C)C(=O)N[C@@H](CC(=O)O)C(=O)N[C@@H](C(=O)N1CCC[C@H]1C(=O)N[C@H](C(=O)N[C@@H](CCCCN)C(=O)N[C@@H](CC(C)C)C(=O)N[C@@H](CCCCNC(=O)COCCOCCNC(=O)COCCOCCNC(=O)CC[C@H](NC(=O)CCCCCCCCCCCCCCCCC(=O)O)C(=O)O)C(=O)N[C@@H](CCC(N)=O)C(=O)N[C@H](C(=O)N[C@@H](CC(C)C)C(=O)N[C@@H](CC(C)C)C(=O)N[C@@H](CCCCN)C(=O)N[C@@H](CCC(N)=O)C(=O)N[C@@H](CCC(=O)O)C(=O)N[C@@H](CCCNC(=N)N)C(=O)N[C@@H](CCC(N)=O)C(=O)N[C@@H](CCCCN)C(=O)N[C@@H](CCCCN)C(=O)NC(C)(C)C(=O)N[C@@H](CCCNC(=N)N)C(=O)N[C@@H](CCC(=O)O)C(=O)N[C@@H](CCC(N)=O)C(=O)N[C@@H](C)C(=O)N[C@@H](CCC(=O)O)C(=O)N[C@H](C(=O)N[C@@H](CC(N)=O)C(=O)N[C@@H](CCCCN)C(=O)N[C@@H](CCCNC(=N)N)C(=O)N[C@H](C(=O)N[C@@H](CC(C)C)C(=O)N[C@@H](CCC(=O)O)C(=O)N[C@@H](CCCNC(=N)N)C(=O)N[C@H](C(N)=O)C(C)C)[C@@H](C)CC)[C@@H](C)O)[C@@H](C)CC)[C@@H](C)CC)C(C)C)C(C)C` [compound 149] (H-IVLSLD[dV]PIKLK([AEEA-AEEA-γGlu-C18 diacid])QILLKQERQKK[Aib]REQAETNKRILERV-NH2; N-terminus assumed): the EC50 at CRF1R receptor is more than 100 nM; at human CRF2α receptor (setting [1]) it was 0.06 nM; at human CRF2α receptor (setting [2]), 2.54 nM. Also, the Emax on CRF1R receptor was found to be 6.6%.
Consider `CC[C@H](C)[C@H](N)C(=O)N[C@H](C(=O)N[C@@H](CC(C)C)C(=O)N[C@@H](CO)C(=O)N[C@@H](CC(C)C)C(=O)N[C@@H](CC(=O)O)C(=O)N[C@@H](C(=O)N1CCC[C@H]1C(=O)N[C@H](C(=O)NCC(=O)N[C@@H](CC(C)C)C(=O)N[C@@H](CCCCNC(=O)COCCOCCNC(=O)COCCOCCNC(=O)CC[C@H](NC(=O)CCCCCCCCCCCCCCCCC(=O)O)C(=O)O)C(=O)N[C@@H](CCC(N)=O)C(=O)N[C@H](C(=O)N[C@@H](CC(C)C)C(=O)N[C@@H](CC(C)C)C(=O)N[C@@H](CCCCN)C(=O)N[C@@H](CCC(N)=O)C(=O)N[C@@H](CCC(=O)O)C(=O)N[C@@H](CCCNC(=N)N)C(=O)N[C@@H](CCC(N)=O)C(=O)N[C@@H](CCCCN)C(=O)N[C@@H](CCCCN)C(=O)NC(C)(C)C(=O)N[C@@H](CCCNC(=N)N)C(=O)N[C@@H](CCC(N)=O)C(=O)N[C@@H](CCC(N)=O)C(=O)N[C@@H](C)C(=O)N[C@@H](CCC(=O)O)C(=O)N[C@H](C(=O)N[C@@H](CC(N)=O)C(=O)N[C@@H](CCCCN)C(=O)N[C@@H](CCCNC(=N)N)C(=O)N[C@H](C(=O)N[C@@H](CC(C)C)C(=O)N[C@@H](CCC(=O)O)C(=O)N[C@@H](CCCNC(=N)N)C(=O)N[C@H](C(N)=O)C(C)C)[C@@H](C)CC)[C@@H](C)O)[C@@H](C)CC)[C@@H](C)CC)C(C)C)C(C)C` [compound 150] (H-IVLSLD[dV]PIGLK([AEEA-AEEA-γGlu-C18 diacid])QILLKQERQKK[Aib]RQQAETNKRILERV-NH2; N-terminus assumed), for which the EC50 on CRF1R receptor is more than 100 nM; on human CRF2α receptor (setting [1]), 0.07 nM; on human CRF2α receptor (setting [2]) it was 3.99 nM. This compound also gave an Emax at CRF1R receptor of 7.2%.
As to `CC[C@H](C)[C@H](N)C(=O)N[C@H](C(=O)N[C@@H](CC(C)C)C(=O)N[C@@H](CO)C(=O)N[C@@H](CC(C)C)C(=O)N[C@@H](CC(=O)O)C(=O)N[C@H](C(=O)N1CCC[C@H]1C(=O)N[C@H](C(=O)N[C@@H](CCCCN)C(=O)N[C@@H](CC(C)C)C(=O)N[C@@H](CCCCNC(=O)COCCOCCNC(=O)COCCOCCNC(=O)CC[C@H](NC(=O)CCCCCCCCCCCCCCCCC(=O)O)C(=O)O)C(=O)N[C@@H](CCC(N)=O)C(=O)N[C@H](C(=O)N[C@@H](CC(C)C)C(=O)N[C@@H](CC(C)C)C(=O)N[C@@H](CCCCN)C(=O)N[C@@H](CCC(N)=O)C(=O)N[C@@H](CCC(=O)O)C(=O)N[C@@H](CCCNC(=N)N)C(=O)N[C@@H](CCC(N)=O)C(=O)N[C@@H](CCCCN)C(=O)N[C@@H](CCCCN)C(=O)NC(C)(C)C(=O)N[C@@H](CCCNC(=N)N)C(=O)N[C@@H](CCC(=O)O)C(=O)N[C@@H](CCC(N)=O)C(=O)N[C@@H](C)C(=O)N[C@@H](CCC(=O)O)C(=O)N[C@H](C(=O)N[C@@H](CC(N)=O)C(=O)N[C@@H](CCCCN)C(=O)N[C@@H](CCCNC(=N)N)C(=O)N[C@H](C(=O)N[C@@H](CC(C)C)C(=O)N[C@@H](CCC(=O)O)C(=O)N[C@@H](CCCNC(=N)N)C(=O)N[C@H](C(N)=O)C(C)C)[C@@H](C)CC)[C@@H](C)O)[C@@H](C)CC)[C@@H](C)CC)C(C)C)C(C)C` [compound 152] (H-IVLSLDVPIKLK([AEEA-AEEA-γGlu-C18 diacid])QILLKQERQKK[Aib]REQAETNKRILERV-NH2; N-terminus assumed), the results for the half-maximal effective concentration (EC50) on CRF1R receptor, on human CRF2α receptor (setting [1]) and at human CRF2α receptor (setting [2]) were more than 100 nM, 0.09 nM and 4.94 nM, respectively. This compound came in with an Emax at CRF1R receptor of 4.9%.
With `CC[C@H](C)[C@H](N)C(=O)N[C@H](C(=O)N[C@@H](CC(C)C)C(=O)N[C@@H](CO)C(=O)N[C@@H](CC(C)C)C(=O)N[C@@H](CC(=O)O)C(=O)N[C@H](C(=O)N1CCC[C@H]1C(=O)N[C@H](C(=O)NCC(=O)N[C@@H](CC(C)C)C(=O)N[C@@H](CCCCNC(=O)COCCOCCNC(=O)COCCOCCNC(=O)CC[C@H](NC(=O)CCCCCCCCCCCCCCCCC(=O)O)C(=O)O)C(=O)N[C@@H](CCC(N)=O)C(=O)N[C@H](C(=O)N[C@@H](CC(C)C)C(=O)N[C@@H](CC(C)C)C(=O)N[C@@H](CCCCN)C(=O)N[C@@H](CCC(N)=O)C(=O)N[C@@H](CCC(=O)O)C(=O)N[C@@H](CCCNC(=N)N)C(=O)N[C@@H](CCC(N)=O)C(=O)N[C@@H](CCCCN)C(=O)N[C@@H](CCCCN)C(=O)NC(C)(C)C(=O)N[C@@H](CCCNC(=N)N)C(=O)N[C@@H](CCC(=O)O)C(=O)N[C@@H](CCC(N)=O)C(=O)N[C@@H](C)C(=O)N[C@@H](CCC(=O)O)C(=O)N[C@H](C(=O)N[C@@H](CC(N)=O)C(=O)N[C@@H](C)C(=O)N[C@@H](CCC(N)=O)C(=O)N[C@H](C(=O)N[C@@H](CC(C)C)C(=O)N[C@@H](C)C(=O)N[C@@H](CCC(N)=O)C(=O)N[C@H](C(N)=O)C(C)C)[C@@H](C)CC)[C@@H](C)O)[C@@H](C)CC)[C@@H](C)CC)C(C)C)C(C)C` [compound 156] (H-IVLSLDVPIGLK([AEEA-AEEA-γGlu-C18 diacid])QILLKQERQKK[Aib]REQAETNAQILAQV-NH2; N-terminus assumed), the EC50 on CRF1R receptor was more than 100 nM; at human CRF2α receptor (setting [1]) it was 1.06 nM. On CRF1R receptor, this compound came in with an Emax of 4%.

These data come from patent publication US12679878B2, “CRF2 receptor agonists and their use in therapy” (SANOFI, priority 2020, dated 2026).
